Patent publication US20260060947A1 (INSTITUT PASTEUR DE MONTEVIDEO, priority 2019, published 2026)
“And” between values parts separate entries of the source, which are not always exact repeats. Identical values can stand only once. “Also recorded” adds a separate entry of the source.

Assays:
SOD1^G93A rats [1] = assay: Post-paralysis survival trial in SOD1^G93A rats; type: in vivo, rat
Method: (§1) Only female transgenic rats showing weakness and gait alterations in the […] as the first clinical sign were selected for BANA treatment studies. Rats were divided randomly into BANA or vehicle-treated groups. BANA was freshly prepared in buffer phosphate (PB), and administrated daily at a dose of 100 mg/kg using a curved stainless steel gavage needle with 3-mm ball tip. Rats were treated from day-1 post-paralysis for 15 days or until end-stage when they were euthanized.
All rats were weighed and evaluated for motor activity daily. Disease onset was determined for each animal when pronounced muscle atrophy accompanied by abnormal gait, typically expressed as subtle limping or dragging of one hind limb. End-stage was defined by a lack of righting reflexes or the inability to reach food and water.
Survival curves were compared by Kaplan-Meier analysis with the Log-rank test using GraphPad Prism 7 software.
To test whether systemic treatment with BANA could prolong the survival of SOD1^G93A rats, a trial was conducted in which rats were orally treated with BANA (100 mg/kg/day) or vehicle, starting immediately after paralysis onset of one hind limb until the end-stage of the disease.

NLRP3 inflammasome = assay: Inflammasome activation in THP-1 cells (LPS and ATP), IL-1β ELISA; type: cell-based, Human; settings: 30 μM, in first or second signal (LPS and ATP), compared with vehicle
Method: The effect of BANA or BA over NF-κB-dependent gene expression was studied by qPCR using THP-1 cells. THP-1 cells were differentiated into macrophages and treated with BANA (30 μM) or BA (30 μM) for 2 hs, followed by stimulation with LPS (100 ng/mL, for 3-4 h).
For inflammasome activation, THP-1 cells were treated with LPS (as above) followed by exposure to ATP (5 mM, 45 min). IL-1β in the supernatant was then measured by ELISA (B&D OptEIA TM, San Diego, CA, USA).

[2] = BANA plasma levels by RP-HPLC after oral administration; type: in vivo, SOD1^G93A rats
Method: as §1
For the detection of BANA in plasma, experiments were performed using RP-HPLC analysis (Agilent 1200 HPLC system). Rats were sacrificed and plasma samples were obtained. 100 μL of plasma was incubated with HgCl2 (20 mM) at 37° C. for 30 minutes and after that extracted with 900 μL of acetonitrile (ACN) and injected into HPLC in a 20-40% gradient of B in 10 minutes. BANA plasma concentration was calculated from a standard curve using Salicylate as an internal standard. (CPAK C-18, […], 150 mm×3.9 mm I.D. column; A phase: H2O 0.1% Formic acid; B phase: ACN 0.1% Formic acid; detection at 300 nm)
Rates were dosed with 100 mg/kg/day of BANA administered orally.

SOD1^G93A rats [3] = assay: Motor neuron analysis in lumbar spinal cord (ChAT, soma size, ubiquitin, nitrotyrosine, synaptic terminals); type: in vivo, rat
Method: One of the main features of ALS in both human patients and animal models is motor neuron loss, thus the effect of BANA on motor neuron size and number was characterized. To further investigate the protective effect of BANA on motor neuron pathology in SOD1^G93A symptomatic rats, experiments were conducted to assess the number of synaptic terminals contacting motor neuron cell bodies in the ventral spinal cord as well as the denervation of neuromuscular junctions.
The number of motor neurons expressing ChAT was assessed by counting the positive cells in the gray matter of the lumbar spinal cord of non-transgenic compared with symptomatic SOD1^G93A onset, vehicle- and BANA treated rats. Motor neuron counting was assessed by counting ChAT positive cells in the ventral horn on eight 30 μm sections taken 100 μm apart. The longest axis (length) of each soma was taken into consideration to quantify the mean size of motor neuron soma. The analysis was performed manually in at least 10 histological sections per animal (four different rats for each condition) using the cell counter tool of the ImageJ software. Statistical studies were performed using statistical tools of the GraphPad Prism 7 software. Descriptive statistics were used for each group, and Kruskal-Wallis analysis followed by Dunn's comparison test was used among groups. Results are presented as mean±SEM, with p<0.05 considered significant.
In other experiments, the number of synaptic vesicles contacting motor neuron cell bodies was assessed by immunohistochemistry by counting VGlut-1-positive and Synaptophysin-positive puncta in Rexed laminae VII and IX. Synaptic terminals were quantified in at least 20 motor neurons per animal (4 different rats per condition) using the Analyze Particles tool of ImageJ software.

[4] = Electrophilic reactivity: reaction between BANA and β-mercaptoethanol followed by UV-Visible spectra; type: physicochemical; settings: BANA 30 μM, β-ME 300 μM, phosphate buffer 20 mM pH=7.4, scans each min up to 15 min
Method: Most electrophilic nitroalkene compounds exert their pharmacological activity via a Michael addition reaction with nucleophiles. To study the electrophilic properties of BANA, the reaction between -mercaptoethanol (BME) and BANA was studied spectrophotometrically.
The electrophilic reactivity of BANA compound was determined by analyzing the UV-Visible spectra of the reaction between BANA and β-Mercaptoethanol (β-ME). BANA (30 μM) was incubated with β-ME (300 μM) in Phosphate buffer (20 mM) pH=7.4, and scans were taken each min up to 15 min.

NF-κB [5] = assay: LPS-induced NF-κB activation in NF-κB-RE-Luc reporter mouse; type: in vivo; settings: intraperitoneal, 2 h before LPS; BANA 10, 20 and 30 mg/kg; BA 30 mg/kg; DMF 30 mg/kg
Method: To determine whether BANA was capable of preventing LPS-induced NF-κB activation, intraperitoneal administration of BANA (10, 20, and 30 mg/kg) were followed by LPS intraperitoneal administration to an NF-κB-reporter transgenic mouse.

NF-κB [6] = assay: TNFα-induced NF-κB activation in HT-29 NF-κB reporter cell line (flow cytometry); type: cell-based; settings: BANA 10, 20, 30 μM, BA 30 μM, DMF 30 μM before TNFα
Method: The effects of BANA on LPS- or TNFα-induced NF-κB activation were also assayed in cell cultures of BV2 microglial cell line and primary adult microglia isolated from symptomatic SOD1^G93A rats, and HT-29 NF-κB reporter cell line, respectively.

inflammasome = assay: LPS/ATP-induced inflammasome activation in BV2 cells (western blot of IL-1β); type: cell-based, murine; settings: treatment in second signal (ATP), compared to vehicle or sodium benzoate
Method: FIG. 3B: For inflammasome activation, BV2 cells were treated with LPS and ATP. BANA or B.A treatment was performed in second signal (ATP). Presence of pro-IL1β in cell lysates (CL) and cleaved IL-1β in supernatants (SN) was determined by western blot analysis. […] All data are expressed as mean±SEM.

[7] = oral 100 mg/kg/day from paralysis onset until end-stage
[8] = 100 mg/kg/day, 15 days after paralysis onset, vs vehicle

O=C(O)c1ccc(/C=C/[N+](=O)[O-])cc1 [BANA, (E)-4-(2-nitrovinyl) benzoic acid]
increase probability of survival compared with vehicle-treated rats (SOD1^G93A rats [1]; [7]): 32%
mean survival time (SOD1^G93A rats [1]; [7]): evidence of a survival benefit
post-paralysis survival prolonged respect to vehicle (SOD1^G93A rats [1]; oral, starting after disease onset): 32%
release of IL-1β (NLRP3 inflammasome): almost completely prevented
[BANA] in plasma, sample + HgCl2 ([2]; SOD1^G93A symptomatic rats, 15 days oral daily 100 mg/kg, plasma incubated with HgCl2 (20 mM, 37° C., 30 min), 100 mg/kg): 3.69 μm and 3.45 μm and 3.58 μm
concentration at 15 days ([2]; female, SOD1^G93A transgenic, rat, plasma, po, 100 mg/kg, SOD1^G93A symptomatic rats, 15 days oral daily 100 mg/kg, plasma incubated with HgCl2 (20 mM, 37° C., 30 min), read-out: [BANA] in plasma, sample + HgCl2): 3.29 µM
BANA plasma levels reached ([2]; rats, 100 mg/kg/day orally, HPLC): 3.49 µM
fraction of plasma BANA covalently linked to proteins ([2]; rats, oral 100 mg/kg/day for 5 days): more than 90%
plasma concentration after oral administration (in words) ([2]; rats, oral administration): low micromolar concentration
loss of VGlut-1-positive and Synaptophysin-positive synaptic terminals (SOD1^G93A rats [3]; 100 mg/kg/day post-paralysis, vs vehicle): significantly prevented
number of ChAT+ motor neurons (SOD1^G93A rats [3]; 100 mg/kg/day, 15 days after paralysis onset): prevented motor neuron loss
NO2-Tyrosine accumulation in surviving motor neurons (SOD1^G93A rats [3]; [8]): significantly prevented
motor neuron size (SOD1^G93A rats [3]; [8]): ameliorated
ubiquitin accumulation / aggregation in motor neurons (SOD1^G93A rats [3]; [8]): significantly prevented
reaction with β-mercaptoethanol (UV-Visible absorbance) [4]: react with 3-ME, resulting in a decreased in absorbance
LPS-induced NF-κB activation in vivo (NF-κB [5]): significantly decreased; also recorded: significantly inhibited
TNFα-induced NF-κB activation (NF-κB [6]): potently prevented
LPS/ATP-induced inflammasome activation (release of IL-1β adjusted to pro-IL-1β) (inflammasome): inhibited
